According to patent publication US12251447B2, “Combined formulation comprising four linked cytotoxic T lymphocyte (CTL) epitopes and a PD-1 pathway inhibitor and methods of use thereof to treat cancer” (Taiho Pharmaceutical Co., Ltd., priority 2018, dated 2025):
Ends that are not written are not given here.

How the values were obtained:
Format in all cases: in vivo, mouse
[1] = Example 6: rate of change in body weight; details: 18 days after cell transplantation vs Day 0
Experimental: (§1) Body weight was measured using an electronic balance for animals, and a rate of change in body weight (BWC) was calculated from the body weight measured on Day 0 (the day of grouping, BW0) and the body weight on 18 days after cell transplantation (BW) according to the following formula. Rate of change in body weight BWC (%)=(BW−BW0)/BW0×100
9-week-old B2 m^tm2(HLA-A24/H-2Db/B2M)Tai mice were randomly assigned to groups each involving 15 animals. The day of grouping was defined as Day 0.
This study was conducted in the same way as in Example 4 except that TPV07 or TPV08 was used instead of TPV06 as a peptide having 4 linked epitopes. TPV07 and TPV08, as in TPV06, were each prepared into 6 mg/mL using distilled water (Otsuka Pharmaceutical Factory Inc.) and then mixed with the equivalent amount of Montanide™ ISA 51 VG (SEPPIC) to prepare an emulsion, which was administered.

[2] = Example 5: rate of change in body weight; details: 18 days after cell transplantation vs Day 0
Experimental: as §1
9-week-old B2m^tm2(HLA-A24/H-2Db/B2M)Tai mice were randomly assigned to groups each involving 15 animals. The day of grouping was defined as Day 0.
This study was conducted in the same way as in Example 4 except that an anti-mouse PD-L1 antibody was used instead of the anti-mouse PD-1 antibody. GoInVivo™ Purified anti-mouse CD274 (B7-H1, PD-L1) (Clone: 10F.9G2, BioLegend, Inc.) was prepared as an anti-mouse PD-L1 antibody (anti-mPD-L1 Ab) into 1 mg/mL using D-PBS (FUJIFILM Wako Pure Chemical Corp.) immediately before administration. One week after final administration of the emulsions (Day 21), the anti-mouse PD-L1 antibody was intraperitoneally administered at 200 μg/body.

[3] = Example 4: rate of change in body weight; details: body weight 18 days after cell transplantation vs Day 0
Experimental: 8-week-old B2m^tm2(HLA-A24/H-2Db/B2M)Tai mice were randomly assigned to groups each involving 15 animals. The day of grouping was defined as Day 0. A 6 mg/mL peptide solution was prepared by dissolving a peptide having 4 linked epitopes TPV06 in distilled water (Otsuka Pharmaceutical Factory Inc.), and filled into the B Braun Injekt syringe (B. Braun Melsungen AG). After the equivalent amount of Montanide™ ISA 51 VG (SEPPIC) was filled into another syringe, these syringes were connected to each other via a connector, and the peptide solution was thoroughly mixed with Montanide™ ISA 51 VG to prepare an emulsion. Also, an emulsion of distilled water mixed with the equivalent amount of Montanide™ ISA 51 VG was prepared as a vehicle control. Each of these emulsions was subcutaneously administered weekly in amounts of 100 μL each in the vicinity of base of tail of each B2m^tm2(HLA-A24/H-2Db/B2M)Tai mouse, and administrations were carried out three times in total (Days 0, 7, and 14). […]
Body weight was measured using an electronic balance for animals, and a rate of change in body weight (BWC) was calculated from the body weight measured on Day 0 (the day of grouping, BW0) and the body weight on 18 days after cell transplantation (BW) according to the following formula. […]

Row | Sequence | BWC (%) change in body weight [1] | BWC (%) change in body weight [2] | BWC (%) rate of change in body weight [3]
1 | DYSARWNEIRRQIRPIFSNRRRVYDYNCHVDLRRASLDSDPWV [TPV07, PEP5-RR-PEP9-RR-PEP6-RR-PEP2] | 18.9% | – | –
2 | DYSARWNEIRRQIRPIFSNRRRVYDYNCHVDLRRILEQSGEWWK [TPV08, PEP5-RR-PEP9-RR-PEP6-RR-PEP10] | 21.7% | – | –
3 | DYSARWNEIRRQIRPIFSNRRRVYDYNCHVDLRRLLQAEAPRL [TPV06, PEP5-RR-PEP9-RR-PEP6-RR-PEP4] | – | 21.9% | 27.0%
